Source: patent US7964642B2, “Vanilloid TRPV1 receptor antagonists” (Pharmeste S.R.L., priority 2004, dated 2011)

Legend:
vanilloid TRPV1 receptor [1] = target: T1, vanilloid TRPV1 receptor (Rattus norvegicus, UniProt O35433); assay: Ca2+ fluorescence measurements in cultured rat trigeminal ganglia neurons: inhibition of capsaicin-induced calcium mobilisation; assay type: cell-based; conditions: capsaicin 0.1 μM; for IC50: 10 minutes pre-incubation, mean and 95% fiducial limits, read-out: IC50 inhibiting capsaicin-evoked [Ca2+]i mobilization; for concentration giving complete inhibition of the response to capsaicin / threshold concentration that produced an inhibitory effect: compounds incubated 10 minutes prior to capsaicin challenge
T1 construct: rat trigeminal neuronal cells, that therefore were identified as TRPV1 expressing neurons; endogenous in cells; host or cells: primary trigeminal ganglion neurons from 2-day-old Sprague-Dawley rats
T1 sequence (O35433 whole entry): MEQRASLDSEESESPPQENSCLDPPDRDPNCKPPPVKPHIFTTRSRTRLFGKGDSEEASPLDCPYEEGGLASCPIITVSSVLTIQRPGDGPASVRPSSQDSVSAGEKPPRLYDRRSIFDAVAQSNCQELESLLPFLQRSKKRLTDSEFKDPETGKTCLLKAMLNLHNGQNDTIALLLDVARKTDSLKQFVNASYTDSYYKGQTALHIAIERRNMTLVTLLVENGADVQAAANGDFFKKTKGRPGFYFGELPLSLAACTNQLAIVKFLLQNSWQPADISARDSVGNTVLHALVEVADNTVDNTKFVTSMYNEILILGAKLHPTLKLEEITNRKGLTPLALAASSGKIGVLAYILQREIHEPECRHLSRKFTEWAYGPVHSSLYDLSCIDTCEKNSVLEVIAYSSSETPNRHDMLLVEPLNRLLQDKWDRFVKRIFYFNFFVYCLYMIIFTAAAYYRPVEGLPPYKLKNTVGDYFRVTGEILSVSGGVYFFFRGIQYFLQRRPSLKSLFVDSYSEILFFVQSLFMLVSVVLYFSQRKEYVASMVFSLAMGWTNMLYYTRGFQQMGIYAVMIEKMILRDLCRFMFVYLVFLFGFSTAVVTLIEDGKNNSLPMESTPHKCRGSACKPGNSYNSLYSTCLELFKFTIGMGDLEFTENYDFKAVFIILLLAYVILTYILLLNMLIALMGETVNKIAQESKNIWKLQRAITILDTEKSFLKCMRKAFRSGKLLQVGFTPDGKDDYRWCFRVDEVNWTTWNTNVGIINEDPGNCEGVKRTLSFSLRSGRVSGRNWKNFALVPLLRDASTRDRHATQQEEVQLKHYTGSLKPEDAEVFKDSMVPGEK
Method: Ca^2+ Fluorescence Measurements in Cultured Rat Trigeminal Ganglia
Newborn rats (2 days old) were terminally anaesthetized and decapitated. Trigeminal ganglia were removed and rapidly placed in a cold phosphate buffered solution (PBS) before being transferred to collagenase/dispase (1 mg/ml dissolved in Ca^2+-Mg^2+-free PBS) for 35 min. at 37° C.^4.
After the enzymatic treatment the ganglia were rinsed three times with Ca^2+-Mg^2+-free PBS and then placed in 2 ml of cold DMEM supplemented with 10% foetal bovine serum (FBS, heat inactivated), 2 mM L-glutamine, 100 μ/ml penicillin and […] streptomycin. The ganglia were then dissociated into single cells by several passages through a series of syringe needles (23 G down to 25 G). Finally, the medium and ganglia cells sieved through a […] filter to remove debris and taken up with 8 ml of DMEM medium and centrifuged (200×g for 5 min.). The final cell pellet was re-suspended in DMEM medium (supplemented with 100 ng/ml mouse Nerve Growth Factor (mouse-NGF-7S) and cytosine-β-D-arabino-furanoside free base (ARA-C) […]). The cells were plated on poly-L-lysine (8.3 mM) and laminin (5 mM) coated 25 mm glass cover slips and kept for 2 to 5 days at 37° C. in a humidified incubator gassed with 5% CO2 and air. Plated neurons were loaded with Fura-2-AM-ester (3 μM) in Ca^2+ buffer solution of the following composition (mM): CaCl2 1.4, KCl 5.4, MgSO4 0.4, NaCl 135, D-glucose 5, HEPES 10 with BSA 0.1%, at pH 7.4, for 40 min at 37° C., washed twice with the Ca^2+ buffer solution and transferred to a chamber on the stage of a Nikon eclipse TE300 microscope. The dye was excited at 340 and 380 nm to indicate relative [Ca^2+]i changes by the F340/F380 ratio recorded with a dynamic image analysis system (Laboratory Automation 2.0, RCS, Florence, Italy). Capsaicin (0.1 μM) and ionomycin (5 μM) were added to the chamber. A calibration curve using a buffer containing Fura-2-AM-ester and determinant concentrations of free Ca^2+ was used to convert the obtained data from F340/F380 ratio to [Ca^2+]i (nM)^5.
The effects of Ia, Ib and Ic were tested against capsaicin-induced calcium mobilisation; Ia, Ib and Ic were incubated for 10 minutes prior to the capsaicin challenge. The inhibitory effect of the reference TRPV1 antagonist, capsazepine, was also tested.

[2] = tested on: rat trigeminal neuronal cells; assay: Ca2+ fluorescence measurements in cultured rat trigeminal ganglia neurons: KCl-evoked [Ca2+]i mobilization; assay type: cell-based; conditions: 5 mM KCl
vanilloid TRPV1 receptor [3] = target: T1, vanilloid TRPV1 receptor; assay: Wiping test in rats (capsaicin-induced wiping movements); assay type: in vivo; conditions: intraperitoneal; for effect on capsaicin-induced wiping in rats: 15 minutes prior to capsaicin challenge; for ED50 capsaicin-induced wiping: 15 minutes prior to capsaicin challenge (capsaicin 0.1%, 50 μl on conjunctiva), mean and 95% fiducial limits
Method: Newborn and adult Sprague-Dawley rats (˜250 g) were used (Harlam, Italy). All experiments complied with the national guidelines and were approved by the regional ethics committee.
The irritant effect (induction of wiping movements) of capsaicin was assessed by applying capsaicin 0.1% (50 μl) on the rat conjunctiva and the number of wiping movements was recorded during the 60 s period that followed the application. In another set of experiments, the rats were treated intraperitoneally with different doses of Ia and Ic and capsaicin-induced wiping was studied.

COc1cc(CNC(=S)NCc2ccc(C(F)(F)F)cc2)c(I)cc1O [Ic, 1-(4-trifluoromethyl)-3-(2-iodo-4-hydroxy-5-methoxybenzyl) thiourea]
IC50 (vanilloid TRPV1 receptor [1]): 70 nM
concentration giving complete inhibition of the response to capsaicin (vanilloid TRPV1 receptor [1]): 3 µM
threshold concentration that produced an inhibitory effect (vanilloid TRPV1 receptor [1]): 1 nM
Mobilization of [Ca2+]i evoked by KCl [2]: not affected
effect on capsaicin-induced wiping in rats (vanilloid TRPV1 receptor [3]): significantly reduced
ED50 capsaicin-induced wiping (vanilloid TRPV1 receptor [3]): 7.20 (6.34-7.89) mg/kg

Oc1cc2c(cc1O)CN(C(=S)NCCc1ccc(Cl)cc1)CCC2 [capsazepine, reference compound]
IC50 (vanilloid TRPV1 receptor [1]): 2340 nM

COc1cc(CNC(=S)NCc2ccc(C(C)(C)C)cc2)c(I)cc1O [Ia, 1-(4-tert-butyl)-3-(2-iodo-4-hydroxy-5-methoxybenzyl) thiourea]
IC50 (vanilloid TRPV1 receptor [1]): 3.48 nM
concentration giving complete inhibition of the response to capsaicin (vanilloid TRPV1 receptor [1]): 0.1 µM
threshold concentration that produced an inhibitory effect (vanilloid TRPV1 receptor [1]): 0.1 nM
Mobilization of [Ca2+]i evoked by KCl [2]: not affected
effect on capsaicin-induced wiping in rats (vanilloid TRPV1 receptor [3]): significantly reduced
ED50 capsaicin-induced wiping (vanilloid TRPV1 receptor [3]): 2.76 (2.05-3.35) mg/kg

COc1cc(CNC(=S)NCc2ccc(C(C)(C)C)cc2)c(Cl)cc1O [Ib, 1-(4-tert-butyl)-3-(2-chloro-4-hydroxy-5-methoxybenzyl) thiourea]
IC50 (vanilloid TRPV1 receptor [1]): 3.86 nM
threshold concentration that produced an inhibitory effect (vanilloid TRPV1 receptor [1]): 0.1 nM
Mobilization of [Ca2+]i evoked by KCl [2]: not affected
